Measurements: publication PMC7164622, “Citrate lyase CitE in Mycobacterium tuberculosis contributes to mycobacterial survival under hypoxic conditions” (PLoS ONE, 2020)

Tests used:
MtbCitE (CitE) [1] = target: T1, MtbCitE (CitE) (Mycobacterium tuberculosis, UniProt P9WPE1)
MtbCitE (CitE) [2] = target: T1, MtbCitE (CitE); remark: listed apart in the source
[3] = target: the molecule itself; assay: cross-linking; chemical cross-linking with 4 μM disuccinimidyl suberate (DSS), 10 mM CitE protein (so in the source), 100 mM NaH2PO4 pH 8.0, 150 mM NaCl, room temperature, half an hour, then SDS-PAGE

## Nc1ncnc2c1ncn2[C@@H]1O[C@H](COP(=O)(O)OP(=O)(O)OP(=O)(O)O)[C@@H](O)[C@H]1O [ATP]
MtbCitE (CitE) [1]
  activity with 0-1.5 mM ATP: the citrate cleavage activity of MtbCitE was inhibited by ATP

## O=C(O)CC(O)(CC(=O)O)C(=O)O [citrate]
MtbCitE (CitE) [2]
  citrate cleavage activity: we predicted that purified MtbCitE had citrate lyase activity

B1: Mycobacterium tuberculosis CitE (MtbCitE), citrate lyase (enzyme)
chain: MNLRAAGPGWLFCPADRPERFAKAAAAADVVILDLEDGVAEAQKPAARNALRDTPLDPERTVVRINAGGTADQARDLEALAGTAYTTVMLPKAESAAQVIELAPRDVIALVETARGAVCAAEIAAADPTVGMMWGAEDLIATLGGSSSRRADGAYRDVARHVRSTILLAASAFGRLALDAVHLDILDVEGLQEEARDAAAVGFDVTVCIHPSQIPVVRKAYRPSHEKLAWARRVLAASRSERGAFAFEGQMVDSPVLTHAETMLRRAGEATSE
notes: also called Rv2498c; citrate lyase β-subunit
[3]
  stoichiometry N: 3
